# Data taken from patent US20100047333A1, “Modified Peptides and Their Use for the Treatment of Autoimmune Diseases” (priority 2001, published 2010).
# Columns and labels:
# mice [1] = assay: survival rate of mice after multiple administrations of peptide; assay type: in vivo
# Excerpt: (§1) Other characteristics and advantages of the invention will become apparent from the example which follows relating to the preparation of the modified peptide and to the study of its activity against an autoimmune disease. Systemic lupus presents an easy clinical symptom to follow because of the large urinary protein excretion that accompanies the disorder that results from an associated renal condition, glomerulonephritis. Levels of protein secretion were followed to assess the effectiveness of the modified peptide in addressing the underlying autoimmune disorder.
# (§2) The specific peptide […] (SEQ ID NO: 1), which is a 21-amino acid sequence of the 70 kDa snRNP protein corresponding to residues 131-151, was synthesized in its phosphorylated form (in the 10 position—P10). This self-protein, which is normally present in each cell, is recognized by T-cells and antibodies from lupus patients and mice as an antigen toward which the immune system is reacting, generating a so-called autoimmune reaction.
# CD4+ T cells = assay: production of IL-2 (interluekin-2) by CD4+ T cells; assay type: cell-based, mice
# Excerpt: as §2
# mice [2] = assay: urine protein excretion in treated mice; assay type: in vivo
# Excerpt: as §1, §2
sequence,measurement,setting,value
"RIHMVYSKRSGKPRGYAFIEY (listed as Homo sapiens) [natural (non-phosphorylated) peptide, reference compound]",improvement in the survival rate (in words),"mice [1]; mice, after administration of the peptide",unable to improve significantly the survival rate
"RIHMVYSKRSGKPRGYAFIEY (lysine acetylation, position unspecified; listed as Homo sapiens) [acetylated peptide]",activity (preliminary data),"mice [1]; preliminary data, compared with the phosphorylated peptide P10",even stronger activity
RIHMVYSKRSGKPRGYAFIEY [P10],survival rate,"mice [1]; mice, after multiple administrations (similar to a vaccine), compared to 0%",55%
same,production of IL-2 (interluekin-2) by CD4+ T cells,CD4+ T cells,increased significantly
same,urine protein excretion,mice [2],reduced
